Data reported in patent US20100227858A1, “TRISUBSTITUTED PYRIMIDINE DERIVATIVES FOR THE TREATMENT OF PROLIFERATIVE DISEASES” (ASTRAZENECA AB, priority 2007, published 2010).
“And” between values parts separate entries of the source, which are not always exact repeats. Equal values may be shown once. Read-outs that look alike come from different tables or passages of the source.

Tests used:
recombinant mTOR = recombinant mTOR (Homo sapiens, UniProt P42345); experiment: In vitro mTOR kinase assay, Test (a)(i) (AlphaScreen); assay type: biochemical
Chain of recombinant mTOR (P42345 1362-2549): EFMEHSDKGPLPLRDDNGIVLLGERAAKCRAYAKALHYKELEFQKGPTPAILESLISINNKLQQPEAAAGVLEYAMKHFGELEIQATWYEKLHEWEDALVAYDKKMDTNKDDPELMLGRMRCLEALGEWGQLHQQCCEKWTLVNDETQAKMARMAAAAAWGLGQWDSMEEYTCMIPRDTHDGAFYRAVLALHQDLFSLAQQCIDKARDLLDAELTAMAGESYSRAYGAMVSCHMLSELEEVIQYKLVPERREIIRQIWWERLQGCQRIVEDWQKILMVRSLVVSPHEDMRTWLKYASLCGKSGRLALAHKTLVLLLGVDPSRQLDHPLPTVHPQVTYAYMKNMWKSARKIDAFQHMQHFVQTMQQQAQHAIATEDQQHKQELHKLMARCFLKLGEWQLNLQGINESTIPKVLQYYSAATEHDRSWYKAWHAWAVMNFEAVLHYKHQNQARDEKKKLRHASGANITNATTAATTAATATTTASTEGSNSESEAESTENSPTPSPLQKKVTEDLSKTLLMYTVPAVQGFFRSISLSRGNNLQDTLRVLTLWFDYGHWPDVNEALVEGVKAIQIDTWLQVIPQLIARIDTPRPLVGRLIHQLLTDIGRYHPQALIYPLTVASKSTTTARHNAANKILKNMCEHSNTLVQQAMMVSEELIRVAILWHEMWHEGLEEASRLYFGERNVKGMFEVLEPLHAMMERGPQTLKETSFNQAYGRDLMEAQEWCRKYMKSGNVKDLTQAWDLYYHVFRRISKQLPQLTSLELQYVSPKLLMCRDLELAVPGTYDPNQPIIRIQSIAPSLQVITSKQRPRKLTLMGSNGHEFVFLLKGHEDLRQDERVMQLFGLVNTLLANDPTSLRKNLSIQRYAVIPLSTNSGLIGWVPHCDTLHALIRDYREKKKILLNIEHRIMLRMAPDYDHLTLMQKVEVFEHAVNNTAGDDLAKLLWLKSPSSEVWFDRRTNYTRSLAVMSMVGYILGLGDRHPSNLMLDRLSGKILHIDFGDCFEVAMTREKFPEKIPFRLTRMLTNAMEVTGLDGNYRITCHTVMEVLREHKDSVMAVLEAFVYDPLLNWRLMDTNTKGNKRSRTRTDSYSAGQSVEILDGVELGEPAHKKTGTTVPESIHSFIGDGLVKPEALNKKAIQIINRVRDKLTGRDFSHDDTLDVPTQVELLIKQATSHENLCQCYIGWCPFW
Experimental: (a)(i) In Vitro mTOR Kinase Assay
The HEK293 FLAG-tagged mTOR (1362-2549) stable cell line was routinely maintained at 37° C. with 5% CO2 up to a confluency of 70-90% in Dulbecco's modified Eagle's growth medium (DMEM; Invitrogen Limited, Paisley, UK Catalogue No. 41966-029) containing 10% heat-inactivated foetal calf serum (FCS; Sigma, Poole, Dorset, UK, Catalogue No. F0392), 1% L-glutamine (Gibco, Catalogue No. 25030-024) and 2 mg/ml Geneticin (G418 sulfate; Invitrogen Limited, UK Catalogue No. 10131-027). Following expression in the mammalian HEK293 cell line, expressed protein was purified using the FLAG epitope tag using standard purification techniques.
A 30 μl mixture of recombinant purified mTOR enzyme, 1 μM biotinylated peptide substrate (Biotin-Ahx-[…]NH2; Bachem UK Ltd), ATP (20 μM) and a buffer solution [comprising Tris-HCl pH7.4 buffer (50 mM), EGTA (0.1 mM), bovine serum albumin (0.5 mg/mL), DTT (1.25 mM) and manganese chloride (10 mM)] was agitated at room temperature for 90 minutes.
These assay solutions were incubated for 2 hours at room temperature.
Phosphorylated biotinylated peptide is formed in situ as a result of mTOR mediated phosphorylation. The phosphorylated biotinylated peptide that is associated with AlphaScreen Streptavidin donor beads forms a complex with the p70 S6 Kinase (T389) 1A5 Monoclonal Antibody that is associated with Alphascreen Protein A acceptor beads. […] Accordingly, the presence of mTOR kinase activity results in an assay signal. In the presence of an mTOR kinase inhibitor, signal strength is reduced.

Serine 473 in Akt = experiment: In vitro phospho-Ser473 Akt assay, Test (c); assay type: cell-based; conditions: Homo sapiens; MDA-MB-468 cells; read-out: IC50 versus Serine 473 in Akt, Test (c)
Experimental: (c) In Vitro phospho-Ser473 Akt Assay
This assay determines the ability of test compounds to inhibit phosphorylation of Serine 473 in Akt as assessed using Acumen Explorer technology (Acumen Bioscience Limited), a plate reader that can be used to rapidly quantitate features of images generated by laser-scanning.
A MDA-MB-468 human breast adenocarcinoma cell line (LGC Promochem, Teddington, Middlesex, UK, Catalogue No. HTB-132) was routinely maintained at 37° C. with 5% CO2 up to a confluency of 70-90% in DMEM containing 10% heat-inactivated FCS and 1% L-glutamine.
For the assay, the cells were detached from the culture flask using ‘Accutase’ (Innovative Cell Technologies Inc., San Diego, Calif., USA; Catalogue No. AT104) using standard tissue culture methods and resuspended in media to give 1.7×10^5 cells per mL. […]
All subsequent aspiration and wash steps were carried out using a Tecan 96 well plate washer (aspiration speed 10 mm/sec). […] An aliquot of PBS (50 μl) was added to each well and the plates were sealed with black plate sealers and the fluorescence signal was detected and analysed.
Fluorescence dose response data obtained with each compound were analysed and the degree of inhibition of Serine 473 in Akt was expressed as an IC50 value.

PI3K = molecular target: T1, PI3K; experiment: In vitro PI3K enzyme assay, Test (b)(i) (AlphaScreen); assay type: biochemical, human; conditions: single values measured on two occasions; isoform (p110α or p110γ) not clearly stated; read-out: IC50 versus PI3K, Test (b)(i)
T1 construct: full length DNA of each of the p110α, p110β and p110δ Type Ia human PI3K p110 isoforms
T1 sequence (P42336 whole entry, canonical isoform): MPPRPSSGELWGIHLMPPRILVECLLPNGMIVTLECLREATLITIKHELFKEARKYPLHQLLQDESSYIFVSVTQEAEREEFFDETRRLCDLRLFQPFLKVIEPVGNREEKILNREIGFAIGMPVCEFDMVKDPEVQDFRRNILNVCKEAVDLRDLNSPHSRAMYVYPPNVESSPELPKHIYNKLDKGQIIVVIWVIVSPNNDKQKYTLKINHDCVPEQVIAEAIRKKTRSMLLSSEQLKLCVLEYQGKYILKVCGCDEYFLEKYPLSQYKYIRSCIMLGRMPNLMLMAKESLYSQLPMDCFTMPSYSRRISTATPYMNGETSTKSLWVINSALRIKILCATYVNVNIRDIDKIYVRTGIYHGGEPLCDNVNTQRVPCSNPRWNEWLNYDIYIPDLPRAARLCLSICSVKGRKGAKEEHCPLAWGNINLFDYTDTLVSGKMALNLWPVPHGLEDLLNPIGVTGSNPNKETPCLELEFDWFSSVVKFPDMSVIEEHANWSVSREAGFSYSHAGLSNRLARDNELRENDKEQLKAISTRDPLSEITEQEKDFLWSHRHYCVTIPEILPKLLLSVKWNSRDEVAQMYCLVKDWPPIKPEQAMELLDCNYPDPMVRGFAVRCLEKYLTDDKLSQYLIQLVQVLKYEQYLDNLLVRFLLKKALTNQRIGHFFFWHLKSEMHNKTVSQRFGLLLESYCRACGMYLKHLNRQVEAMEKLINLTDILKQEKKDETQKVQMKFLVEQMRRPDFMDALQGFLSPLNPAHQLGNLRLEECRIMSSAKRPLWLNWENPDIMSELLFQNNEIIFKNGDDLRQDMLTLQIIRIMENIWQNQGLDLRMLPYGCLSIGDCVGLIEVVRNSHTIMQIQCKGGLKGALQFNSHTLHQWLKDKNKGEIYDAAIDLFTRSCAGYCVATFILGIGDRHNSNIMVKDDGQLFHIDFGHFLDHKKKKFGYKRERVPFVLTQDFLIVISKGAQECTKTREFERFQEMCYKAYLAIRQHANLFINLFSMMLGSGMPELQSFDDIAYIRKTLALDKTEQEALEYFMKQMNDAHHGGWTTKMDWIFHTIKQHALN
T1 sequence (P27986 2-724, further chain): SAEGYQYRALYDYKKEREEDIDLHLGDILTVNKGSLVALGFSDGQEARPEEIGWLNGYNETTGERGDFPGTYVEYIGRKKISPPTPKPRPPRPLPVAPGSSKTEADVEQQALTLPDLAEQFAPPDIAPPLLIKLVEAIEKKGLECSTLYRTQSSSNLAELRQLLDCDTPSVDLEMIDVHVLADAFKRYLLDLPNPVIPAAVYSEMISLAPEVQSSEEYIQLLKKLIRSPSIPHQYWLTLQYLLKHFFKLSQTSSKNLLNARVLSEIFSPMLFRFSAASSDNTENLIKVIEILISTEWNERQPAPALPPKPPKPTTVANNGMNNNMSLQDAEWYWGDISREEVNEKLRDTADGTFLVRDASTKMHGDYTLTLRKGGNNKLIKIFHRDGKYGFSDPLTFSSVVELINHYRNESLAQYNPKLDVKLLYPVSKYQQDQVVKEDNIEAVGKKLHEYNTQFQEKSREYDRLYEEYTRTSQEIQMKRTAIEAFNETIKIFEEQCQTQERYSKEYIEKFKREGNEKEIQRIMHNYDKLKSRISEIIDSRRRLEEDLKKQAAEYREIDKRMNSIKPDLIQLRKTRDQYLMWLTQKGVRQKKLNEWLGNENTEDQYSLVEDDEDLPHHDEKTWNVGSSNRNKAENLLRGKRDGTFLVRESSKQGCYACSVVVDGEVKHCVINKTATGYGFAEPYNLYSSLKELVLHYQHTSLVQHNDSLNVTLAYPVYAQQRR
Excerpt: (b)(i) In Vitro PI3K Enzyme Assay

[1] = enzyme assay, values may represent the average of two or more measurements, read-out: Test (a)(i) IC50

SMILES | IC50 (recombinant mTOR; [1]) [nM] | other results
C[C@H]1COCCN1c1cc(CS(C)(=O)=O)nc(-c2ccc3cc[nH]c3c2)n1 [Example 35, 6-[4-[(3S)-3-Methylmorpholin-4-yl]-6-(methylsulfonylmethyl)pyrimidin-2-yl]-1H-indole] | 478 | IC50 (recombinant mTOR; single values measured on two occasions, read-out: IC50 versus mTOR kinase, Test (a)(i)): 566 nM and 404 nM; IC50 (Serine 473 in Akt): 3360 nM; IC50 (PI3K): 37000 nM
C[C@H]1COCCN1c1cc(NC(=O)c2ccc(NC(=O)Nc3ccccc3)cc2)nc(N2CCOC[C@@H]2C)n1 [Example 17, N-[2,6-Bis[(3S)-3-methylmorpholin-4-yl]pyrimidin-4-yl]-4-(phenylcarbamoylamino)benzamide] | 9390 | 
CCC(C)[S+]([O-])Cc1cc(N2CCOC[C@H]2C)nc(-c2ccc3[nH]ccc3c2)n1 (stereo partly drawn) [Example 27, 5-[4-(butan-2-ylsulfinylmethyl)-6-[(3R)-3-methylmorpholin-4-yl]pyrimidin-2-yl]-1H-indole] | 1170 | 
COc1ccc(C(=O)Nc2cc(N3CCOC[C@@H]3C)nc(N3CCOC[C@@H]3C)n2)cc1 [Example 19, N-[2,6-Bis[(3S)-3-methylmorpholin-4-yl]pyrimidin-4-yl]-4-methoxy-benzamide] | 181 | 
CCC(C)S(=O)(=O)Cc1cc(N2CCOC[C@@H]2C)nc(-c2ccc3[nH]ccc3c2)n1 (stereo partly drawn) [Example 26, 5-[4-(Butan-2-ylsulfonylmethyl)-6-[(3S)-3-methylmorpholin-4-yl]pyrimidin-2-yl]-1H-indole] | 1380 | 
C[C@H]1COCCN1c1cc(N2CCOC[C@@H]2C)nc(NC(=O)c2ccc(NC(=O)Nc3ccccc3)cc2)n1 [Example 18, N-[4,6-Bis[(3S)-3-methylmorpholin-4-yl]pyrimidin-2-yl]-4-(phenylcarbamoylamino)benzamide] | 1120 | 
COc1cc(C(=O)Nc2cc(N3CCOC[C@@H]3C)nc(N3CCOC[C@@H]3C)n2)ccn1 [Example 7, N-[2,6-Bis[(3S)-3-methylmorpholin-4-yl]pyrimidin-4-yl]-2-methoxy-pyridine-4-carboxamide] | 2840 | 
COc1ccc(C(=O)Nc2nc(N3CCOC[C@@H]3C)cc(N3CCOC[C@@H]3C)n2)cc1 [Example 1, N-[4,6-Bis[(3S)-3-methylmorpholin-4-yl]pyrimidin-2-yl]-4-methoxy-benzamide] | 4650 | 
COc1ccc(C(=O)Nc2cc(N3CCOC[C@@H]3C)nc(N3CCOC[C@@H]3C)n2)cc1C(F)(F)F [Example 2, N-[2,6-Bis[(3S)-3-methylmorpholin-4-yl]pyrimidin-4-yl]-4-methoxy-3-(trifluoromethyl)benzamide] | 236 | 
C[C@H]1COCCN1c1cc(CS(C)(=O)=O)nc(Nc2cc[nH]n2)n1 [Example 30, 4-[(3S)-3-Methylmorpholin-4-yl]-6-(methylsulfonylmethyl)-N-(1H-pyrazol-3-yl)pyrimidin-2-amine] | 897 | 

Further lines, with some results ahead:

IC50 (recombinant mTOR; [1]) [nM] | SMILES | other results
108 | C[C@H]1COCCN1c1cc(CS(=O)(=O)c2ccccc2)nc(-c2ccc3[nH]cnc3c2)n1 [Example 48, 5-[4-(benzenesulfonylmethyl)-6-[(3S)-3-methylmorpholin-4-yl]pyrimidin-2-yl]-1H-benzoimidazole] | 
932 | C[C@H]1COCCN1c1cc(CS(=O)(=O)c2ccccc2)nc(-c2cnc3[nH]ccc3c2)n1 [Example 46, 3-[4-(benzenesulfonylmethyl)-6-[(3S)-3-methylmorpholin-4-yl]pyrimidin-2-yl]-5,7-diazabicyclo[4.3.0]nona-1,3,5,8-tetraene] | 
5350 | C[C@H]1COCCN1c1cc(CS(C)(=O)=O)nc(-c2ccc3cc(C(N)=O)[nH]c3c2)n1 [Example 38, 6-[4-[(3S)-3-Methylmorpholin-4-yl]-6-(methylsulfonylmethyl)pyrimidin-2-yl]-1H-indole-2-carboxamide] | 
1640 | C[C@H]1COCCN1c1cc(CS(C)(=O)=O)nc(-c2ccc3c(C(N)=O)c[nH]c3c2)n1 [Example 36, 6-[4-[(3S)-3-Methylmorpholin-4-yl]-6-(methylsulfonylmethyl)pyrimidin-2-yl]-1H-indole-3-carboxamide] | 
